In patent US11845774B2, “Sterol derivatives and preparation method and uses thereof” (BEIJING PEKING UNIVERSITY WBL BIOTECH CO., LTD., priority 2011, dated 2023):

Legend:
[1] = target: T1, HMG-CoA reductase (rat liver microsomes) (Rattus norvegicus, UniProt P51639); test: Test of activity of inhibiting HMG-CoA reductase (rate of decline of OD340); assay type: biochemical; conditions: for Slope (rate of decline of OD340): blank control slope 16.0
T1 construct: taking out liver of male rat, washing with KESD buffer solution; from tissue; host or cells: liver of male rat (microsomal fraction, glycerol/37 °C treatment, 35-50% ammonium sulfate fraction)
T1 sequence (P51639 1-887): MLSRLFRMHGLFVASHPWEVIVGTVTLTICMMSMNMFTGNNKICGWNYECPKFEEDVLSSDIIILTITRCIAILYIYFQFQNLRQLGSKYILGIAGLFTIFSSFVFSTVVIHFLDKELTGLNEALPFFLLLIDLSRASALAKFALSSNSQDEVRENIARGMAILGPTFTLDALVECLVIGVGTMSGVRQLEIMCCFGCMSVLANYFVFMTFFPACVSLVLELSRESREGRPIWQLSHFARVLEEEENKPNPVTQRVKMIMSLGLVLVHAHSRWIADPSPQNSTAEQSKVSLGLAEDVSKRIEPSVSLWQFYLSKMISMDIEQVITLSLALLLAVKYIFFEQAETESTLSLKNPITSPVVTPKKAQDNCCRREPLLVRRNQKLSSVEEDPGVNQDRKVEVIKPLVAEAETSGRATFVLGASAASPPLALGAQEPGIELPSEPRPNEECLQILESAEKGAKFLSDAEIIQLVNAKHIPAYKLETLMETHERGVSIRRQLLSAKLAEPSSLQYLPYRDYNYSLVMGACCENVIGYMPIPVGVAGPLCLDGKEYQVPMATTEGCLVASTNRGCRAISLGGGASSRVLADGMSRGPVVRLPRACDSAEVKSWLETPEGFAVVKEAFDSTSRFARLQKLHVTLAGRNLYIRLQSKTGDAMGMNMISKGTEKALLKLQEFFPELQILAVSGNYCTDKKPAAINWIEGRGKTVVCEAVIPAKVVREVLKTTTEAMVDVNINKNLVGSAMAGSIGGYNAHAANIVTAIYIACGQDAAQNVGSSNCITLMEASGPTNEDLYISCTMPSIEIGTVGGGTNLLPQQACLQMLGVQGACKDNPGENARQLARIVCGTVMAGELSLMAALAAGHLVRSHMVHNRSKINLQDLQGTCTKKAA
Procedure: Rat liver microsomes (HMG-CoA reductase), could be commercially available or prepared by the following preparation method: taking out liver of male rat, washing with KESD buffer solution, centrifuging under 1200 g for 15 minutes, collecting supernatant, then centrifuging under 105,000 g twice, 90 minutes for each time, and collecting centrifugation deposit. The centrifugation deposit was added with 8.3% of glycerol, heated with 37° C. bath for 1 hour. The crude product of rat liver microsomes was purified with saturated ammonium sulfate, and 35-50% of purified fraction was collected. The purified fraction obtained could be stored in −80° C. refrigerator.
Compound of Formula II was dissolved in 75% ethanol solution, with initial concentration of 8.0 mg/mL, and diluted in gradient manner, to reach 4.0 mg/mL, 2.0 mg/mL, 1.0 mg/mL; lovastatin was used as positive control, dissolved with 75% ethanol solution to reach concentration of 2.0 mg/mL; in the test system, total volume was 250 μL, concentrations of ingredients were separately: potassium chloride 200 mM, potassium dihydrogen phosphate 160 mM, ethylenediamine tetraacetic acid 4 mM, dithiothreitol 10 mM, […] and 3-hydroxy-3-methylglutary coenzyme A as two substrates separately had concentrations of: 200 μM and 50 μM, pH6.8, 30 μL of enzyme was added, 4 test groups were separately added with 10 μL of new compound solutions with different concentrations, the positive control group was added with 10 μL of lovastatin solution, the blank control group was added with 10 μL of 75% ethanol solution, and dynamitic changes of OD340 were detected with Versamax ELISA at 37° C. condition. The rate of decline of OD340 (expressed in slope value) as detected within 5 minutes was used to evaluate the activity of HMG-CoA reductase, and then to evaluate the activity of enzyme inhibitor and the results were shown in Table 2.

[2] = tested on: mice hepatoma cell line H22; test: MTT test of inhibiting cancer cells, H22; assay type: cell-based; conditions: Mus musculus, 72 hours, FIG. 2, read-out: IC50 value, growth of H22
Procedure: (§1) Cancer cells of exponential growth phase were inoculated on 96-well plate, 2×10^4 cells/well, added with drug until final drug concentrations were: 500, 250, 125, 62.5, 31.25, 15.625 and 7.8125 μg/mL, cultured at 37° C. in 5% CO2 cell culture incubator for 72 hours, then added with MTT, 10 μL/well, incubated in dark at 37° C. for 4 hours, culture medium was removed, 150 μL of DMSO or acidified isopropanol was added, vibrated for 5 minutes, and then OD values were measured under wavelength of 570 nm. This was repeated for 3 times, and a blank control was set. These cell strains used the same culture medium, i.e., RPMI1640 culture medium containing 10% fetal bovine serum and 1% double antibody (penicillin and steptomycin).
(§2) Calculation Formula: Cell survival rate=(OD value of test group/OD value of control group)×100%.

[3] = tested on: mice sarcoma cell line S180; test: MTT test of inhibiting cancer cells, S180; assay type: cell-based; conditions: 72 hours, FIG. 4, concentration-effect relationship
Procedure: as §1, §2

mice lymphoma cell YAC-1 = test: MTT test of inhibiting cancer cells, YAC-1; assay type: cell-based; conditions: Mus musculus, 72 hours, FIG. 5, read-out: IC50 value, growth of YAC-1
Procedure: as §1, §2

[4] = tested on: human mononuclear lymphoma cell THP1; test: MTT test of inhibiting cancer cells, THP1; assay type: cell-based; conditions: THP-1, 72 hours, FIG. 6, read-out: IC50 value, growth of THP1
Procedure: as §1, §2

[5] = tested on: human tissue lymphoma cell U937; test: MTT test of inhibiting cancer cells, U937; assay type: cell-based; conditions: U-937, 72 hours, FIG. 7, read-out: IC50 value, growth of U937
Procedure: as §1, §2

[6] = final concentration in system 40 μg/mL
[7] = final concentration in system 80 μg/mL
[8] = final concentration in system 160 μg/mL
[9] = final concentration in system 320 μg/mL

SMILES: C[C@@H](C(O)C1OC2C[C@H]3C4=CC=C5CC(O)CC[C@]5(C)[C@H]4CC[C@]3(C)[C@H]2[C@@]1(C)O)C(C)(C)O (some centres unmarked) [Compound of Formula II, 16,22-epoxy-ergosta-5,7-dien-3,20,23,25-tetraol]
- Inhibition rate [1, 6]: 14.4%
- Slope (rate of decline of OD340) [1, 6]: 13.7
- Inhibition rate [1, 7]: 29.4%
- Slope (rate of decline of OD340) [1, 7]: 11.3
- Inhibition rate [1, 8]: 45.6%
- Slope (rate of decline of OD340) [1, 8]: 8.7
- Inhibition rate [1, 9]: 53.1%
- Slope (rate of decline of OD340) [1, 9]: 7.5
- IC50 ([1]; read-out: IC50 value, inhibition of activity of HMG-CoA reductase (converted)): ~543 µM
- IC50 [2]: ~50 µg/mL
- inhibition effect on growth of S180 (in words) [3]: inhibition effect
- IC50 (mice lymphoma cell YAC-1): ~62.5 µg/mL
- IC50 [4]: ~250 µg/mL
- IC50 [5]: ~50 µg/mL
